Several values for one entry are separate records, joined by “and”; a condition that tells them apart may be missing. Equal values may be shown once. Inconclusive results and toxic doses are left out.
Tested on: L1210 leukemia ip in BDF1 mice, survival T/C
Test: NCI In Vivo Anticancer Drug Screen. Data for tumor model L1210 Leukemia (intraperitoneal) in B6D2F1 (BDF1) mice
Settings: endpoint: mean survival time, higher = longer survival
How it was run: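 Transplanted-tumor mice were given test agent; controls received vehicle only. Survival readings from the two groups were divided (treated over control).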

[1] = dose: 100.0 mg/kg/injection, schedule: Q04DX002 (ip), vehicle: Klucel (hydroxypropylcellulose) (HPC)
[2] = dose: 200.0 mg/kg/injection, schedule: Q04DX002 (ip), vehicle: Klucel (hydroxypropylcellulose) (HPC)
[3] = dose: 400.0 mg/kg/injection, schedule: Q04DX002 (ip), vehicle: Klucel (hydroxypropylcellulose) (HPC)
[4] = dose: 50.0 mg/kg/injection, schedule: Q01DX001 (ip), vehicle: saline
[5] = dose: 100.0 mg/kg/injection, schedule: Q01DX001 (ip), vehicle: saline
[6] = dose: 200.0 mg/kg/injection, schedule: Q01DX001 (ip), vehicle: saline
[7] = dose: 400.0 mg/kg/injection, schedule: Q01DX001 (ip), vehicle: saline

Structure (SMILES): c1ccc([As+](c2ccccc2)(c2ccccc2)c2ccccc2)cc1
- T/C (dose: 1.1 mg/kg/injection, schedule: Q01DX Z (ip), vehicle: carboxymethylcellulose (CMC)): 120 % of control
- T/C (dose: 1.2 mg/kg/injection, schedule: Q04DX003 (ip), vehicle: carboxymethylcellulose (CMC)): 119 % of control
- T/C (dose: 1.7 mg/kg/injection, schedule: Q01DX Z (ip), vehicle: carboxymethylcellulose (CMC)): 104 % of control and 119 % of control
- T/C (dose: 2.5 mg/kg/injection, schedule: Q01DX Z (ip), vehicle: carboxymethylcellulose (CMC)): 101 % of control
- T/C (dose: 2.5 mg/kg/injection, schedule: Q01DX Z (ip), vehicle: methylcellulose (MC)): 119 % of control
- T/C (dose: 2.5 mg/kg/injection, schedule: Q04DX003 (ip), vehicle: carboxymethylcellulose (CMC)): 117 % of control
- T/C (dose: 3.76 mg/kg/injection, schedule: Q01DX Z (ip), vehicle: carboxymethylcellulose (CMC)): 107 % of control
- T/C (dose: 5.0 mg/kg/injection, schedule: Q01DX001 (ip), vehicle: carboxymethylcellulose (CMC)): 115 % of control
- T/C (dose: 5.0 mg/kg/injection, schedule: Q01DX001 (ip), vehicle: saline): 106 % of control
- T/C (dose: 5.0 mg/kg/injection, schedule: Q04DX003 (ip), vehicle: carboxymethylcellulose (CMC)): 116 % of control
- T/C (dose: 5.56 mg/kg/injection, schedule: Q01DX Z (ip), vehicle: carboxymethylcellulose (CMC)): 102 % of control
- T/C (dose: 10.0 mg/kg/injection, schedule: Q01DX001 (ip), vehicle: saline): 106 % of control

Structure (SMILES): Cc1ccc(N2C(=O)CC(c3ccccc3)C2C(=O)O)cc1 (stereo not given)
- T/C [1]: 100 % of control
- T/C [2]: 103 % of control
- T/C [3]: 103 % of control

Structure (SMILES): CCn1cnc2c(=S)nc[nH]c21
- T/C (dose: 4.62 mg/kg/injection, schedule: Q01DX Z (ip), vehicle: carboxymethylcellulose (CMC)): 98 % of control
- T/C (dose: 7.5 mg/kg/injection, schedule: Q01DX005 (ip), vehicle: other): 106 % of control
- T/C (dose: 7.5 mg/kg/injection, schedule: Q01DX009 (ip), vehicle: other): 102 % of control
- T/C (dose: 7.5 mg/kg/injection, schedule: Q01DX009 (sc), vehicle: other): 124 % of control
- T/C (dose: 9.25 mg/kg/injection, schedule: Q01DX Z (ip), vehicle: carboxymethylcellulose (CMC)): 108 % of control
- T/C (dose: 9.25 mg/kg/injection, schedule: Q01DX Z (oral), vehicle: carboxymethylcellulose (CMC)): 110 % of control
- T/C (dose: 15.0 mg/kg/injection, schedule: Q01DX005 (ip), vehicle: other): 102 % of control
- T/C (dose: 15.0 mg/kg/injection, schedule: Q01DX009 (ip), vehicle: other): 107 % of control
- T/C (dose: 15.0 mg/kg/injection, schedule: Q01DX009 (oral), vehicle: other): 115 % of control
- T/C (dose: 15.0 mg/kg/injection, schedule: Q01DX009 (sc), vehicle: other): 103 % of control
- T/C (dose: 18.5 mg/kg/injection, schedule: Q01DX Z (ip), vehicle: carboxymethylcellulose (CMC)): 108 % of control
- T/C (dose: 18.5 mg/kg/injection, schedule: Q01DX Z (oral), vehicle: carboxymethylcellulose (CMC)): 110 % of control
- T/C (dose: 30.0 mg/kg/injection, schedule: Q01DX005 (ip), vehicle: other): 116 % of control
- T/C (dose: 30.0 mg/kg/injection, schedule: Q01DX009 (ip), vehicle: other): 117 % of control
- T/C (dose: 30.0 mg/kg/injection, schedule: Q01DX009 (oral), vehicle: other): 115 % of control
- T/C (dose: 30.0 mg/kg/injection, schedule: Q01DX009 (sc), vehicle: other): 119 % of control
- T/C (dose: 30.0 mg/kg/injection, schedule: Q## X024 (ip), vehicle: other): 102 % of control
- T/C (dose: 31.3 mg/kg/injection, schedule: Q01DX009 (ip), vehicle: saline): 100 % of control and 104 % of control
- T/C (dose: 31.3 mg/kg/injection, schedule: Q01DX010 (ip), vehicle: saline): 92 % of control and 95 % of control
- T/C (dose: 37.0 mg/kg/injection, schedule: Q01DX Z (ip), vehicle: carboxymethylcellulose (CMC)): 112 % of control
- T/C (dose: 37.0 mg/kg/injection, schedule: Q01DX Z (oral), vehicle: carboxymethylcellulose (CMC)): 120 % of control
- T/C (dose: 37.5 mg/kg/injection, schedule: Q## X003 (ip), vehicle: other): 100 % of control
- T/C (dose: 60.0 mg/kg/injection, schedule: Q01DX005 (ip), vehicle: other): 123 % of control
- T/C (dose: 60.0 mg/kg/injection, schedule: Q## X008 (ip), vehicle: other): 107 % of control
- T/C (dose: 60.0 mg/kg/injection, schedule: Q## X016 (ip), vehicle: other): 109 % of control
- T/C (dose: 60.0 mg/kg/injection, schedule: Q## X024 (ip), vehicle: other): 114 % of control
- T/C (dose: 62.5 mg/kg/injection, schedule: Q01DX009 (ip), vehicle: saline): 106 % of control and 112 % of control
- T/C (dose: 62.5 mg/kg/injection, schedule: Q01DX010 (ip), vehicle: saline): 107 % of control and 108 % of control
- T/C (dose: 75.0 mg/kg/injection, schedule: Q01DX001 (ip), vehicle: other): 102 % of control
- T/C (dose: 75.0 mg/kg/injection, schedule: Q01DX001 (sc), vehicle: other): 113 % of control
- T/C (dose: 75.0 mg/kg/injection, schedule: Q## X002 (ip), vehicle: other): 98 % of control
- T/C (dose: 75.0 mg/kg/injection, schedule: Q## X003 (ip), vehicle: other): 100 % of control
- T/C (dose: 120.0 mg/kg/injection, schedule: Q01DX009 (oral), vehicle: other): 151 % of control
- T/C (dose: 120.0 mg/kg/injection, schedule: Q## X008 (ip), vehicle: other): 117 % of control
- T/C (dose: 125.0 mg/kg/injection, schedule: Q01DX010 (ip), vehicle: saline): 122 % of control
- T/C (dose: 150.0 mg/kg/injection, schedule: Q01DX001 (ip), vehicle: other): 108 % of control
- T/C (dose: 150.0 mg/kg/injection, schedule: Q01DX001 (oral), vehicle: other): 117 % of control
- T/C (dose: 150.0 mg/kg/injection, schedule: Q01DX001 (sc), vehicle: other): 117 % of control
- T/C (dose: 150.0 mg/kg/injection, schedule: Q## X002 (ip), vehicle: other): 101 % of control
- T/C (dose: 240.0 mg/kg/injection, schedule: Q## X016 (ip), vehicle: other): 152 % of control
- T/C (dose: 240.0 mg/kg/injection, schedule: Q## X024 (ip), vehicle: other): 165 % of control
- T/C (dose: 250.0 mg/kg/injection, schedule: Q01DX009 (ip), vehicle: saline): 110 % of control and 124 % of control
- T/C (dose: 300.0 mg/kg/injection, schedule: Q01DX001 (oral), vehicle: other): 119 % of control
- T/C (dose: 300.0 mg/kg/injection, schedule: Q## X003 (ip), vehicle: other): 162 % of control
- T/C (dose: 480.0 mg/kg/injection, schedule: Q## X008 (ip), vehicle: other): 157 % of control
- T/C (dose: 480.0 mg/kg/injection, schedule: Q## X016 (ip), vehicle: other): 153 % of control
- T/C (dose: 600.0 mg/kg/injection, schedule: Q01DX001 (oral), vehicle: other): 123 % of control
- T/C (dose: 600.0 mg/kg/injection, schedule: Q01DX001 (sc), vehicle: other): 121 % of control

Structure (SMILES): O=C(O)C(c1ccccc1)(c1ccccc1)c1ccccc1
- T/C [4]: 101 % of control
- T/C [5]: 106 % of control
- T/C [6]: 103 % of control

Structure (SMILES): Cc1ccc2c(c1C)C(=O)C(=O)N2
- T/C [4]: 110 % of control
- T/C [5]: 104 % of control
- T/C [6]: 110 % of control
- T/C [7]: 104 % of control

Structure (SMILES): CC(=O)O[C@@H]1CC[C@]2(C)C(=CC[C@@H]3C4CC5O[C@]6(CCC(C)CN6)C(C)C5[C@]4(C)CCC32)C1 (stereo not given in full)
- T/C [1]: 93 % of control
- T/C [2]: 89 % of control
- T/C [3]: 93 % of control

Structure (SMILES): C/C(=N\O)C1(C)CC=CCC1CO (stereo not given)
- T/C (dose: 100.0 mg/kg/injection, schedule: Q04DX003 (ip), vehicle: saline with Tween-80): 101 % of control
- T/C (dose: 200.0 mg/kg/injection, schedule: Q04DX003 (ip), vehicle: saline with Tween-80): 101 % of control
- T/C (dose: 400.0 mg/kg/injection, schedule: Q04DX003 (ip), vehicle: saline with Tween-80): 96 % of control

Structure (SMILES): O=[N+]([O-])c1ccc(CC2=NCCc3cc4c(cc32)OCO4)cc1
- T/C [5]: 98 % of control
- T/C [6]: 96 % of control
- T/C [7]: 105 % of control

Structure (SMILES): CN(C)P1(=S)NCCCO1 (stereo not given)
- T/C (dose: 87.5 mg/kg/injection, schedule: Q01DX009 (ip), vehicle: other): 97 % of control
- T/C (dose: 175.0 mg/kg/injection, schedule: Q01DX009 (ip), vehicle: other): 100 % of control
- T/C (dose: 350.0 mg/kg/injection, schedule: Q01DX009 (ip), vehicle: other): 100 % of control

Structure (SMILES): O=S(=O)(Nc1ccc(O)c(Cl)c1)c1ccccc1
- T/C (dose: 100.0 mg/kg/injection, schedule: Q01DX009 (ip), vehicle: saline with Tween-80): 100 % of control
- T/C (dose: 200.0 mg/kg/injection, schedule: Q01DX009 (ip), vehicle: saline with Tween-80): 103 % of control
- T/C (dose: 400.0 mg/kg/injection, schedule: Q01DX009 (ip), vehicle: saline with Tween-80): 95 % of control

From PubChem BioAssay AID248 (DTP/NCI, 2004)
